Where two headings read alike, the source gives them in different places.
What was measured:
PRC2/EZH2+/+ [1] = target: T1, PRC2/EZH2+/+ (Homo sapiens, UniProt Q15910); test: Equilibrium probe competition assay (ePCA), TR-FRET; format: binding
T1 construct: purchased Active Motif

PRC2/EZH2Y641N [2] = target: T2, PRC2/EZH2Y641N (Homo sapiens, UniProt Q15910, Y641N); test: as above; format: binding
T2 construct: Synthetic cDNA encoding N-terminal 6His-tagged full length EZH2^Y641N; 6His (N); made in house; host or cells: Sf9 insect cells (baculovirus co-infection)

PRC2/EZH2Y641N [3] = target: T2, PRC2/EZH2Y641N; test: Kinetic probe competition assay (kPCA), TR-FRET; format: binding
Source text: Biotinylated PRC2 complexes and the fluorescent probe used in TR-FRET assays were generated as described in the supplementary methods section.

PRC2/EZH2 Y111L = target: T3, PRC2/EZH2 Y111L (Homo sapiens, UniProt Q15910, Y111L); test: Scintillation proximity assay (SPA) of H3K27 methylation; format: biochemical
T3 construct: N-terminal 6His-tagged full length EZH2^Y641N, EZH2^Y111L; 6His (N); made in house; host or cells: Sf9 insect cells (baculovirus co-infection)
Description: (§1) Assay-ready plates containing 50 nl of compound dilutions and DMSO controls were filled with 2.5 µL enzyme solution and pre-incubated for 15 min. […] Experiments were also performed without pre-incubation of enzyme and compounds. In this case, the substrate solution was added before enzyme. The reaction was stopped using 1.6 µg/µl streptavidin beads (Perkin Elmer) and 700 µM of SAM (Perkin Elmer). The plates were sealed with transparent foil.
(§2) For equilibrium binding competition (ePCA) and SPA enzyme inhibition assays, raw data import, quality control, normalization, and curve fitting to a 4-parameter logistic equation for IC50 determination were performed using the Genedata Screener® software (Genedata AG). ePCA Ki values were either calculated using the Cheng-Prussof equation[68] or with the GraphPad Prism model “One-site—Fit Ki”.

PRC2/EZH2+/+ [4] = target: T1, PRC2/EZH2+/+; test: as above; format: biochemical
Description: as §1, §2

PRC2/EZH2Y111D = target: T4, PRC2/EZH2Y111D (Homo sapiens, UniProt Q15910, Y111D); test: as above; format: biochemical
T4 construct: N-terminal 6His-tagged full length EZH2^Y641N, EZH2^Y111L, EZH2^Y111D; 6His (N); made in house; host or cells: Sf9 insect cells (baculovirus co-infection)
Description: as §1, §2

PRC2/EZH2Y641N [5] = target: T2, PRC2/EZH2Y641N; test: as above; format: biochemical
Description: as §1, §2

PRC2/EZH2Y641N+Y661D = target: T5, PRC2/EZH2Y641N+Y661D (Homo sapiens, UniProt Q15910, Y641N/Y661D); test: as above; format: biochemical
T5 construct: N-terminal 6His-tagged full length EZH2^Y641N, EZH2^Y111L, EZH2^Y111D, EZH2^Y641N, Y661DEZH2, EZH1; 6His (N); made in house; host or cells: Sf9 insect cells (baculovirus co-infection)
Description: as §1, §2

KARPAS-422 cells = test: Cellular proliferation assay (AlamarBlue, 144 h); format: cell-based; conditions: Homo sapiens; KARPAS-422 cells, 6-day (144 h), AlamarBlue; read-out: KARPAS (6-day) Anti-proliferation IC50
Description: Cell viability was determined by means of the AlamarBlue® reagent (Thermo Fisher Scientific) following instructions from the manufacturer. […] Anti-proliferative IC50s were calculated by fitting the normalized AlamarBlue® fluorescence values to a 4-parameter logistic equation using the Electronic Notebook (ELN) software from IDBS.

in vitro = in vitro ADME; conditions: human, Caco-2, pH 7.2, 2 µM, 2 h, 37 °C
Description: Cells were kept at 37 °C in a humidified 5% CO2 atmosphere. Before the permeation assay was run, the culture medium was replaced by an FCS-free HEPES carbonate transport buffer (pH 7.2). For assessment of monolayer integrity, the transepithelial electrical resistance was measured. Test compounds were pre-dissolved in DMSO and added either to the apical or basolateral compartment at a final concentration of 2 µM. Before and after 2 h incubation at 37 °C, samples were taken from both compartments. Analysis of compound content was conducted after precipitation with methanol by LC/MS/MS analysis. Reference compounds were analyzed in parallel as assay control. Permeability (Papp) was calculated in the apical to basolateral (A → B) and basolateral to apical (B → A) directions. The efflux ratio basolateral (B) to apical (A) was calculated by dividing Papp B–A by Papp A–B.

[6] = EZH2Y641N (- H3K27me3), sheet ePCA&kPCA RT

SMILES: CCCc1cc(C)[nH]c(=O)c1CNC(=O)c1cc(-c2ccc(N3CCN(C(C)C)CC3)nc2)cc2c1cnn2C(C)C [Compound 9, UNC1999]
- Ki (PRC2/EZH2+/+ [1]; EZH2+/+ (+ H3K27me3), sheet ePCA&kPCA RT, read-out: Equilibrium Ki): 1.14 nM
- Ki (PRC2/EZH2+/+ [1]; EZH2+/+ (- H3K27me3), 5 °C, read-out: Ki (Equilibrium)): 1.92 nM
- Ki (PRC2/EZH2+/+ [1]; EZH2+/+ (- H3K27me3), 15 °C, read-out: Ki (Equilibrium)): 1.6 nM
- Ki (PRC2/EZH2+/+ [1]; EZH2+/+ (- H3K27me3), 30 °C, read-out: Ki (Equilibrium)): 8.06 nM
- Ki (PRC2/EZH2+/+ [1]; EZH2+/+ (- H3K27me3), 37 °C, read-out: Ki (Equilibrium)): 9.47 nM
- Ki (PRC2/EZH2+/+ [1]; EZH2+/+ (- H3K27me3), sheet ePCA&kPCA RT, read-out: Equilibrium Ki): 2.83 nM
- Ki (PRC2/EZH2+/+ [1]; wild type EZH2, absence of H3K27me3 peptide, read-out: Ki): 2.8 ± 0.9 nM
- Ki (PRC2/EZH2+/+ [1]; wild type EZH2, saturating concentrations of H3K27me3 peptide, read-out: Ki): 1.1 ± 0.5 nM
- Ki (PRC2/EZH2Y641N [2]; EZH2Y641N (+ H3K27me3), equilibrium, RT sheet): 6.65 nM
- Ki (PRC2/EZH2Y641N [2]; [6]): 26.5 nM
- Calculated RT (PRC2/EZH2Y641N [3]; EZH2Y641N (+ H3K27me3)): 0.07 h
- Kd (PRC2/EZH2Y641N [3]; EZH2Y641N (+ H3K27me3), kinetic, RT sheet): 4.56 nM
- Calculated RT (PRC2/EZH2Y641N [3]; EZH2Y641N (- H3K27me3)): 0.0242 h
- Kd (PRC2/EZH2Y641N [3]; [6]): 35 nM
- IC50 (PRC2/EZH2 Y111L; 0' enzyme:inhibitor pre-incubation, read-out: SPA Mean IC50 (M) - 0' enzyme:inhibitor pre-incubation EZH2 Y111L): 3.1e-08 M
- IC50 (PRC2/EZH2 Y111L; 15' enzyme:inhibitor pre-incubation, read-out: SPA Mean IC50 (M) - 15' enzyme:inhibitor pre-incubation EZH2 Y111L): 2.2e-08 M
- IC50 (PRC2/EZH2 Y111L; 60' enzyme:inhibitor pre-incubation, read-out: SPA Mean IC50 (M) - 60' enzyme:inhibitor pre-incubation EZH2 Y111L): 2.5e-08 M
- IC50 (PRC2/EZH2+/+ [4]; 0' enzyme:inhibitor pre-incubation, read-out: SPA Mean IC50 (M) - 0' enzyme:inhibitor pre-incubation EZH2+/+): 5.2e-09 M
- IC50 (PRC2/EZH2+/+ [4]; 15' enzyme:inhibitor pre-incubation, read-out: SPA Mean IC50 (M) - 15' enzyme:inhibitor pre-incubation EZH2+/+): 3.7e-09 M
- IC50 (PRC2/EZH2+/+ [4]; 60' enzyme:inhibitor pre-incubation, read-out: SPA Mean IC50 (M) - 60' enzyme:inhibitor pre-incubation EZH2+/+): 3.1e-09 M
- IC50 (PRC2/EZH2Y111D; 0' enzyme:inhibitor pre-incubation, read-out: SPA Mean IC50 (M) - 0' enzyme:inhibitor pre-incubation EZH2Y111D): 5.9e-06 M
- IC50 (PRC2/EZH2Y111D; 15' enzyme:inhibitor pre-incubation, read-out: SPA Mean IC50 (M) - 15' enzyme:inhibitor pre-incubation EZH2Y111D): 4e-06 M
- IC50 (PRC2/EZH2Y111D; 60' enzyme:inhibitor pre-incubation, read-out: SPA Mean IC50 (M) - 60' enzyme:inhibitor pre-incubation EZH2Y111D): 3.2e-06 M
- IC50 (PRC2/EZH2Y641N [5]; 0' enzyme:inhibitor pre-incubation, read-out: SPA Mean IC50 (M) - 0' enzyme:inhibitor pre-incubation hEZH2Y641N): 3.8e-08 M
- IC50 (PRC2/EZH2Y641N [5]; 15' enzyme:inhibitor pre-incubation, read-out: SPA Mean IC50 (M) - 15' enzyme:inhibitor pre-incubation EZH2Y641N): 3.6e-08 M
- IC50 (PRC2/EZH2Y641N [5]; 60' enzyme:inhibitor pre-incubation, read-out: SPA Mean IC50 (M) - 60' enzyme:inhibitor pre-incubation EZH2Y641N): 3.2e-08 M
- IC50 (PRC2/EZH2Y641N+Y661D; 0' enzyme:inhibitor pre-incubation, read-out: SPA Mean IC50 (M) - 0' enzyme:inhibitor pre-incubation EZH2Y641N+Y661D): 3e-06 M
- IC50 (PRC2/EZH2Y641N+Y661D; 15' enzyme:inhibitor pre-incubation, read-out: SPA Mean IC50 (M) - 15' enzyme:inhibitor pre-incubation EZH2Y641N+Y661D): 2.4e-06 M
- IC50 (PRC2/EZH2Y641N+Y661D; 60' enzyme:inhibitor pre-incubation, read-out: SPA Mean IC50 (M) - 60' enzyme:inhibitor pre-incubation EZH2Y641N+Y661D): 3.2e-06 M
- IC50 (KARPAS-422 cells): 630 nM
- Papp A→B at 2 h, 2 µM (in vitro; apical to basolateral, read-out: PK Caco-2 Flux Papp A-B (mean)): 0.314 ×10⁻⁶ cm/s
- Papp B→A at 2 h, 2 µM (in vitro; basolateral to apical, read-out: PK Caco-2 Flux Papp B-A (mean)): 12.6 ×10⁻⁶ cm/s

Reference: publication PMC10799085, “A miniaturized mode-of-action profiling platform enables high throughput characterization of the molecular and cellular dynamics of EZH2 inhibition” (Scientific Reports, 2024)
